From ChEMBL document CHEMBL6127102 (Bioorg Med Chem, 2024)
Active and inactive are the calls of the source. The calls are words filed in the database; no cut-off is given here.

Tests used:
MDA-MB-231 [1] = experiment: Effect on total MEK in human MDA-MB-231 cells at 5 uM incubated for 24 hrs by Western blot analysis; format: functional, cell-based
HCC1937 = experiment: Antitumor activity against BRCA 1-deficient human HCC1937 cells incubated for 72 hrs by MTT assay; format: functional, cell-based; conditions: HCC1937, 72 h
MDA-MB-468 = experiment: Antitumor activity against human MDA-MB-468 cells harboring wild-type BRCA incubated for 72 hrs by MTT assay; format: functional, cell-based; conditions: MDA-MB-468, 72 h
MDA-MB-231 [2] = experiment: Induction of DNA damage in human MDA-MB-231 cells assessed as increase in olive tail moments at 5 uM incubated for 24 hrs by Comet assay; format: functional, cell-based
MDA-MB-231 [3] = experiment: […] activity in human MDA-MB-231 cells at 1 uM incubated for 24 hrs by wound healing assay; format: functional, cell-based
[4] = Toxicity in BALB/c nude mouse xenografted with human MDA-MB-231 cells assessed as damage in liver at 38 mg/kg, ip administered on every 2 days for 28 days by H and E staining based analysis; format: organism-based; conditions: in vivo, 672 h, time 28 day
[5] = Toxicity in BALB/c nude mouse xenografted with human MDA-MB-231 cells assessed as damage in lung at 38 mg/kg, ip administered on every 2 days for 28 days by H and E staining based analysis; format: organism-based; conditions: in vivo, 672 h, time 28 day
MDA-MB-231 [6] = experiment: Antitumor activity against human MDA-MB-231 cells xenografted in BALB/c nude mouse assessed as decrease in Ki-67 expression at 38 mg/kg, ip administered on every 2 days for 28 days by H and E staining based analysis; format: functional, organism-based; conditions: time 28.0 day
MDA-MB-231 [7] = experiment: Induction of depolarization of mitochondrial membrane potential in human MDA-MB-231 cells at 5 uM incubated for 24 hrs by JC-1 staining based flow cytometry relative to control; format: functional
MDA-MB-231 [8] = experiment: Induction of DNA damage in human MDA-MB-231 cells assessed as increase in gamma-H2AX level at 5 uM incubated for 24 hrs by immunofluorescence based analysis; format: functional, cell-based
MDA-MB-231 [9] = experiment: Induction of apoptosis in human MDA-MB-231 cells at 5 uM incubated for 24 hrs by Annexin V-FITC/PI staining based flow cytometry relative to control; format: functional
MDA-MB-231 [10] = experiment: Effect on RAF expression in human MDA-MB-231 cells at 5 uM incubated for 24 hrs by Western blot analysis; format: functional, cell-based
MDA-MB-231 [11] = experiment: Effect on ERK1/2 phosphorylation in human MDA-MB-231 cells at 5 uM incubated for 24 hrs by Western blot analysis; format: functional, cell-based
[12] = Toxicity in BALB/c nude mouse xenografted with human MDA-MB-231 cells assessed as drug tolerance at 38 mg/kg, ip administered on every 2 days for 28 days; format: organism-based; conditions: in vivo, 672 h, time 28 day
[13] = Cytotoxicity against human MCF-10A cells incubated for 72 hrs by MTT assay; format: toxicity, cell-based
MDA-MB-231 [14] = experiment: Induction of apoptosis in human MDA-MB-231 cells assessed as increase in cleaved caspase-9 level at 5 uM incubated for 24 hrs by Western blot analysis; format: functional, cell-based
[15] = Toxicity in BALB/c nude mouse xenografted with human MDA-MB-231 cells assessed as damage in kidney at 38 mg/kg, ip administered on every 2 days for 28 days by H and E staining based analysis; format: organism-based; conditions: in vivo, 672 h, time 28 day
MDA-MB-231 [16] = experiment: Effect on total ERK1/2 in human MDA-MB-231 cells at 5 uM incubated for 24 hrs by Western blot analysis; format: functional, cell-based
[17] = Toxicity in BALB/c nude mouse xenografted with human MDA-MB-231 cells assessed as body weight change at 38 mg/kg, ip administered on every 2 days for 28 days; format: organism-based; conditions: in vivo, 672 h, time 28 day
MDA-MB-231 [18] = experiment: Antitumor activity against human MDA-MB-231 cells xenografted in BALB/c nude mouse assessed as increase in apoptotic cells at 38 mg/kg, ip administered on every 2 days for 28 days by H and E staining based analysis; format: functional, organism-based; conditions: time 28.0 day
MDA-MB-231 [19] = experiment: Effect on CRAF expression in human MDA-MB-231 cells at 5 uM incubated for 24 hrs by Western blot analysis; format: functional, cell-based
[20] = Toxicity in BALB/c nude mouse xenografted with human MDA-MB-231 cells assessed as damage in spleen at 38 mg/kg, ip administered on every 2 days for 28 days by H and E staining based analysis; format: organism-based; conditions: in vivo, 672 h, time 28 day
MDA-MB-231 [21] = experiment: Induction of apoptosis in human MDA-MB-231 cells assessed as increase in Bax level at 5 uM incubated for 24 hrs by Western blot analysis; format: functional, cell-based
MDA-MB-231 [22] = experiment: Antitumor activity against human MDA-MB-231 cells xenografted in BALB/c nude mouse at 38 mg/kg, ip administered on every 2 days for 28 days relative to control; format: functional; conditions: MDA-MB-231, 672 h, time 28 day, read-out: TGI
[23] = target: Poly [ADP-ribose] polymerase 1 (Homo sapiens, UniProt P09874); experiment: Inhibition of PARP1 (unknown origin) using histone as substrate incubated for 60 mins by ELISA
Sequence of Poly [ADP-ribose] polymerase 1 (P09874 whole entry): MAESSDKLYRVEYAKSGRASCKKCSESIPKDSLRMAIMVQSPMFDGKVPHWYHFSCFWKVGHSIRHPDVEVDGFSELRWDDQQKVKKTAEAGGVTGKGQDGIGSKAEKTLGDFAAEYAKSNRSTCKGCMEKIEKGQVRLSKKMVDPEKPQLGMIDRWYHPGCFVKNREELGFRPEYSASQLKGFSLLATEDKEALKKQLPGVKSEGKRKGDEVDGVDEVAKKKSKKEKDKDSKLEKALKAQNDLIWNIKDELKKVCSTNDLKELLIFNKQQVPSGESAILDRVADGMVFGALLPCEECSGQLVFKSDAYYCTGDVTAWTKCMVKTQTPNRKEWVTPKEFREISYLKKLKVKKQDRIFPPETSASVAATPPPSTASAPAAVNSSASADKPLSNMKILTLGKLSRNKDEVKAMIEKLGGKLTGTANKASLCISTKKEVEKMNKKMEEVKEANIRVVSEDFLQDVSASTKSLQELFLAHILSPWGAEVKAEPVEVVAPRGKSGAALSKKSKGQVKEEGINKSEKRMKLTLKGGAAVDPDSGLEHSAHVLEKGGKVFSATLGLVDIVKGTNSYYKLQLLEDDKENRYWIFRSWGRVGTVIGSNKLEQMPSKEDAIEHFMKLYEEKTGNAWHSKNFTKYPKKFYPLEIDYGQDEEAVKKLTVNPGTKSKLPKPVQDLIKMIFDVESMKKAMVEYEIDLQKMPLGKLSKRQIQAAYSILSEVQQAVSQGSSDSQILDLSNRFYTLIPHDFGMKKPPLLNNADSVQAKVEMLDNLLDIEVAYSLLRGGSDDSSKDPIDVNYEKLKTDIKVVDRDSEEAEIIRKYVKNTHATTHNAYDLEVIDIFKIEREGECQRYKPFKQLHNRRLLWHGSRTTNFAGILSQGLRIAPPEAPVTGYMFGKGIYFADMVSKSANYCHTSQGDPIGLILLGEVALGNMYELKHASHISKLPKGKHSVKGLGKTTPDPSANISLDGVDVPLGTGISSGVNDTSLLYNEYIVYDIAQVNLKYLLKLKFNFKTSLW

MDA-MB-231 [24] = experiment: Anti-migration activity in human MDA-MB-231 cells assessed as wound closure area at 1 uM incubated for 24 hrs by wound healing assay (reference value: 75.6 %); format: functional
[25] = Toxicity in BALB/c nude mouse xenografted with human MDA-MB-231 cells assessed as damage in heart at 38 mg/kg, ip administered on every 2 days for 28 days by H and E staining based analysis; format: organism-based; conditions: in vivo, 672 h, time 28 day
MDA-MB-231 [26] = experiment: Antitumor activity against human MDA-MB-231 cells harboring wild-type BRCA incubated for 72 hrs by MTT assay; format: functional, cell-based; conditions: MDA-MB-231, 72 h
MDA-MB-231 [27] = experiment: Induction of apoptosis in human MDA-MB-231 cells assessed as increase in cleaved PARP level at 5 uM incubated for 24 hrs by Western blot analysis; format: functional, cell-based
MDA-MB-231 [28] = experiment: Antitumor activity against human MDA-MB-231 cells xenografted in BALB/c nude mouse assessed as increase in necrotic cells at 38 mg/kg, ip administered on every 2 days for 28 days by H and E staining based analysis; format: functional, organism-based; conditions: time 28.0 day
MDA-MB-231 [29] = experiment: Effect on MEK phosphorylation in human MDA-MB-231 cells at 5 uM incubated for 24 hrs by Western blot analysis; format: functional, cell-based
MDA-MB-231 [30] = experiment: Induction of apoptosis in human MDA-MB-231 cells as increase in red fluorescence at 5 uM incubated for 24 hrs by Calcein AM/PI staining based confocal microscopy; format: functional, cell-based
MDA-MB-231 [31] = experiment: Induction of ROS generation in human MDA-MB-231 cells at 5 uM incubated for 24 hrs by DCFH-DA staining based flow cytometric analysis; format: functional, cell-based
MDA-MB-231 [32] = experiment: Induction of apoptosis in human MDA-MB-231 cells assessed as decrease in Bcl-2 level at 5 uM incubated for 24 hrs by Western blot analysis; format: functional, cell-based
MDA-MB-436 = experiment: Antitumor activity against BRCA 1-deficient human MDA-MB-436 cells incubated for 72 hrs by MTT assay; format: functional, cell-based; conditions: MDA-MB-436, 72 h
MDA-MB-231 [33] = experiment: Induction of apoptosis in human MDA-MB-231 cells assessed as increase in cleaved caspase-3 level at 5 uM incubated for 24 hrs by Western blot analysis; format: functional, cell-based

IC50 (HCC1937): 1.17 µM
IC50 (MDA-MB-468): 1.24 µM
IC50 [23]: 0.112 µM
IC50 (MDA-MB-231 [26]): 0.75 µM
IC50 (MDA-MB-436): 0.97 µM
Compound: COc1cc(OC)c(/C=C/S(=O)(=O)Cc2ccc(OC)c(NCCCC(=O)N3CCN(C(=O)c4cc(Cc5n[nH]c(=O)c6ccccc56)ccc4F)CC3)c2)c(OC)c1
Activity (MDA-MB-231 [1]): inactive
Activity (MDA-MB-231 [2]): Active
Activity (MDA-MB-231 [3]): Active
Activity [4]: Non-Toxic
Activity [5]: Non-Toxic
Activity (MDA-MB-231 [6]): Active
Activity (MDA-MB-231 [7]): Active
Activity (MDA-MB-231 [8]): Active
Activity (MDA-MB-231 [9]): 48.26%
Activity (MDA-MB-231 [10]): Active
Activity (MDA-MB-231 [11]): Active
Activity [12]: Non-Toxic
IC50 at 72 h [13]: > 40 µM
Activity (MDA-MB-231 [14]): Active
Activity [15]: Non-Toxic
Activity (MDA-MB-231 [16]): inactive
Activity [17]: Non-Toxic
Activity (MDA-MB-231 [18]): Active
Activity (MDA-MB-231 [19]): Active
Activity [20]: Non-Toxic
Activity (MDA-MB-231 [21]): Active
inhibition in vivo at 38 mg/kg (MDA-MB-231 [22]): 61.3%
Activity (MDA-MB-231 [24]): 17.3%
Activity [25]: Non-Toxic
Activity (MDA-MB-231 [27]): Active
Activity (MDA-MB-231 [28]): Active
Activity (MDA-MB-231 [29]): Active
Activity (MDA-MB-231 [30]): Active
Activity (MDA-MB-231 [31]): Active
Activity (MDA-MB-231 [32]): Active
Activity (MDA-MB-231 [33]): Active
